Reference: BigSolDB 2.1

For `CC(C)c1nc(N(C)S(C)(=O)=O)nc(-c2ccc(F)cc2)c1/C=C/[C@@H](O)C[C@@H](O)CC(=O)[O-].CC(C)c1nc(N(C)S(C)(=O)=O)nc(-c2ccc(F)cc2)c1/C=C/[C@@H](O)C[C@@H](O)CC(=O)[O-].[Ca+2]`, the solubility (mole fraction) (in ethanol, 298.15 K) was 0.000337, the solubility (mole fraction) (in ethanol, 303.15 K) was 0.000392 and the solubility (mole fraction) (in ethanol, 308.15 K) was 0.000469. For the same molecule, the solubility (mole fraction) (in ethanol, 313.15 K) was 0.00057, the solubility (mole fraction) (in ethanol, 318.15 K) was 0.000681 and the solubility (mole fraction) (in ethylene glycol, 298.15 K) was 0.000255. It also gave a solubility (mole fraction) (in ethylene glycol, 303.15 K) of 0.000311, a solubility (mole fraction) (in ethylene glycol, 308.15 K) of 0.000374 and a solubility (mole fraction) (in ethylene glycol, 313.15 K) of 0.00044. The solubility (mole fraction) (in ethylene glycol, 318.15 K) was 0.000503, the solubility (mole fraction) (in isopropanol, 298.15 K) was 0.000304 and the solubility (mole fraction) (in isopropanol, 303.15 K) was 0.000366. It also gave a solubility (mole fraction) (in isopropanol, 308.15 K) of 0.000432, a solubility (mole fraction) (in isopropanol, 313.15 K) of 0.000499 and a solubility (mole fraction) (in isopropanol, 318.15 K) of 0.000566. It also gave a solubility (mole fraction) (in n-butanol, 298.15 K) of 0.000429, a solubility (mole fraction) (in n-butanol, 303.15 K) of 0.000511 and a solubility (mole fraction) (in n-butanol, 308.15 K) of 0.000614. It also gave a solubility (mole fraction) (in n-butanol, 313.15 K) of 0.00071, a solubility (mole fraction) (in n-butanol, 318.15 K) of 0.00082 and a solubility (mole fraction) (in propylene glycol, 298.15 K) of 0.0156. The solubility (mole fraction) (in propylene glycol, 303.15 K) was 0.0164, the solubility (mole fraction) (in propylene glycol, 308.15 K) was 0.0173 and the solubility (mole fraction) (in propylene glycol, 313.15 K) was 0.0181. It also gave a solubility (mole fraction) (in propylene glycol, 318.15 K) of 0.0189, a solubility (mole fraction) (in sec-butanol, 298.15 K) of 7.17e-05 and a solubility (mole fraction) (in sec-butanol, 303.15 K) of 8e-05. The solubility (mole fraction) (in sec-butanol, 308.15 K) was 8.96e-05, the solubility (mole fraction) (in sec-butanol, 313.15 K) was 9.92e-05 and the solubility (mole fraction) (in sec-butanol, 318.15 K) was 0.000108. The solubility (mole fraction) (in water, 298.15 K) was 5.4e-06, the solubility (mole fraction) (in water, 303.15 K) was 7.02e-06 and the solubility (mole fraction) (in water, 308.15 K) was 9e-06. For the same molecule, the solubility (mole fraction) (in water, 313.15 K) was 1.13e-05 and the solubility (mole fraction) (in water, 318.15 K) was 1.4e-05.
